Data reported in US20250381194A1, “METHODS FOR MITIGATING THE EFFECTS OF LOW-LEVEL BLASTS THROUGH PHOSPHODIESTERASE-5 INHIBITION” (University of Kentucky Research Foundation, priority 2024, published 2025).
Entries after “also recorded” stand apart in the source; their conditions may differ.

Columns and labels:
[1] = test system: rat brain microvascular endothelial cells; assay: Mitochondrial Network Analysis (MiNA) with mitotracker green in cell culture; type: cell-based; conditions: sildenafil 1 μM in 1% DMSO overnight vs vehicle
From the text: Mitochondrial Mechanisms Targeting mbTBI. […] Mitochondrial Network Analysis (MiNA) workflow in ImageJ was used to examine mitochondrial parameters.

[2] = test system: PGC-1α; assay: Western blot for PGC-1α in cortical and hippocampal tissue seven days post-rmbTBI; type: in vivo, Sprague Dawley rats; conditions: vs rmbTBI vehicle; for PGC-1α expression in cortex tissue: rmbTBI (2 blasts, 24 h interval)
From the text: Blast Exposure. The MBD consists of a cylindrical steel tube, 12-inch internal diameter, separated into a 19-ft. expansion chamber and a 2.5-ft compression chamber. For these studies, compressed helium-driven mode was used to replicate military blast exposure. A 10-mil-thick (0.254 mm) biaxially-oriented polyethylene terephthalate (Mylar) membrane separates the two chambers. The Mylar membrane was actively ruptured by a 4-point blade affixed to a pneumatic cylinder to achieve desired static overpressure. The shock wave was recorded by face-on, reflected pressure (Kulite pitot-static pressure probe) and wall-mounted side-on static pressure sensors (Kulite). Data from each piezoresistive sensor was routed through sensor cables before being captured by the state-of-the-art TMX-18 (AstroNova™ Test & Measurement, 800 kHz sampling rate) and analyzed using AstroView. The rat subjects were secured in plastic netting to minimize but allow free body motion without neck flexion. The rat subjects were positioned 30 inches inside the tube and with lateral head exposure. An overpressure of 11 PSI was utilized, which is in the range where neurological disruption has been observed in operations involving breaching activity. In the studies underlying this example, Sprague Dawley rats were subjected to repeated blast exposure (2 blasts at 24 h interval). Tissue Isolation. For downstream western blot, whole brain homogenate was collected during brain capillary isolation and mixed with 10× RIPA buffer (150 mM NaCl, 1% Triton X-100, 0.5% sodium deoxycholate, 0.1% SDS, 50 mM Tris, pH 8.0) supplemented with protease inhibitors. The samples were snap-frozen in liquid nitrogen and stored at −80° C. until further use. Mitochondrial Biogenesis and Astrocyte Homeostasis. […] Expression of peroxisome proliferator-activated receptor gamma coactivator 1-alpha (PGC-1α), glial fibrillary acidic protein (GFAP), and β-actin was assessed in cortical tissue using western blot. Cortical tissue was extracted and probed seven days post-rmbTBI. Expression of PGC-1a and β-actin was also assessed using in the hippocampal tissue of subjects using western blot. Hippocampal tissue was extracted and probed seven-days post-rmbTBI.

[3] = test system: GFAP; assay: Western blot for GFAP in cortical tissue seven days post-rmbTBI; type: in vivo, Sprague Dawley rats; conditions: rmbTBI (2 blasts, 24 h interval), vs rmbTBI vehicle
From the text: Blast Exposure. The MBD consists of a cylindrical steel tube, 12-inch internal diameter, separated into a 19-ft. expansion chamber and a 2.5-ft compression chamber. For these studies, compressed helium-driven mode was used to replicate military blast exposure. A 10-mil-thick (0.254 mm) biaxially-oriented polyethylene terephthalate (Mylar) membrane separates the two chambers. The Mylar membrane was actively ruptured by a 4-point blade affixed to a pneumatic cylinder to achieve desired static overpressure. The shock wave was recorded by face-on, reflected pressure (Kulite pitot-static pressure probe) and wall-mounted side-on static pressure sensors (Kulite). Data from each piezoresistive sensor was routed through sensor cables before being captured by the state-of-the-art TMX-18 (AstroNova™ Test & Measurement, 800 kHz sampling rate) and analyzed using AstroView. The rat subjects were secured in plastic netting to minimize but allow free body motion without neck flexion. The rat subjects were positioned 30 inches inside the tube and with lateral head exposure. […] Expression of peroxisome proliferator-activated receptor gamma coactivator 1-alpha (PGC-1α), glial fibrillary acidic protein (GFAP), and β-actin was assessed in cortical tissue using western blot. […] Expression of PGC-1a and β-actin was also assessed using in the hippocampal tissue of subjects using western blot. […]

[4] = test system: TOM20; assay: Capillary-specific mitochondrial content (TOM20 staining) seven days post-rmbTBI; type: in vivo, Sprague Dawley rats; conditions: 20 mg/kg high dose daily to day seven, vs rmbTBI vehicle
From the text: (§1) Blast Exposure. The MBD consists of a cylindrical steel tube, 12-inch internal diameter, separated into a 19-ft. expansion chamber and a 2.5-ft compression chamber. For these studies, compressed helium-driven mode was used to replicate military blast exposure. A 10-mil-thick (0.254 mm) biaxially-oriented polyethylene terephthalate (Mylar) membrane separates the two chambers. The Mylar membrane was actively ruptured by a 4-point blade affixed to a pneumatic cylinder to achieve desired static overpressure. The shock wave was recorded by face-on, reflected pressure (Kulite pitot-static pressure probe) and wall-mounted side-on static pressure sensors (Kulite). Data from each piezoresistive sensor was routed through sensor cables before being captured by the state-of-the-art TMX-18 (AstroNova™ Test & Measurement, 800 kHz sampling rate) and analyzed using AstroView. The rat subjects were secured in plastic netting to minimize but allow free body motion without neck flexion. The rat subjects were positioned 30 inches inside the tube and with lateral head exposure. An overpressure of 11 PSI was utilized, which is in the range where neurological disruption has been observed in operations involving breaching activity. In the studies underlying this example, Sprague Dawley rats were subjected to repeated blast exposure (2 blasts at 24 h interval). Capillary Isolation. […]

[5] = test system: ZO-1; assay: Tight junction integrity (ZO-1 immunostaining of cortical capillaries) seven days post-rmbTBI; type: in vivo, Sprague Dawley rats; conditions: 20 mg/kg high dose daily to day seven, vs rmbTBI vehicle
From the text: as §1

[6] = test system: mitochondrial volume and tight junction proteins in isolated brain capillaries; assay: Correlation of capillary mitochondrial volume (OXPHOS) and ZO-1, chronic delayed sildenafil study; type: in vivo, Sprague Dawley rats; conditions: 20 mg/kg oral gavage daily from 2 to 5 months post-blast; brain capillaries at 5 months post-rmbTBI
Description: Brain Capillary Isolation and Immunostaining. Half frozen rat brain from all groups was homogenized with isolation buffer (pH7.4 DPBS containing 5.5 mM glucose, 1 mM sodium pyruvate, and 1% BSA). The homogenate was centrifuged at 1000×g for 10 min at 4° C. to remove the supernatant. […] After evaluating the quality and concentration of capillary suspension under a bright field microscope, which may contain small amount of large vessel and cells, the isolated capillary sample was ready for the immunostaining analysis. […]
The expression of ZO-1 was quantified by measuring the mean fluorescence intensity by tracing the capillary under NIS-Elements analysis software. The total capillary area was measured by using NIS-Elements. For mitochondrial volume, the OXPHOS fluorescence from Z-stack images was quantified using Imaris (X64 9.6.1) using surface creation tool. […]

[7] = test system: cerebral blood flow (CBF); assay: MRI arterial spin labeling of cerebral blood flow, chronic delayed sildenafil study; type: in vivo, Sprague Dawley rats; conditions: 20 mg/kg daily, 2 and 4.5 months post-rmbTBI, between sham, rmbTBI+vehicle
Description: Animal Procedure. […] MRI (magnetic resonance imaging) was performed at 1.5 and 4.5 months post-blast. […] At the end of the experiment, rats were euthanized and the brain tissue was collected after transcardial perfusion with PBS (FIG. 24). One hemisphere of the brain was snap frozen with liquid nitrogen for brain capillary isolation while another hemisphere of the brain was fixed with 4% paraformaldehyde (PFA). After 48 hours of fixation, the brain tissue was placed into PBS containing 30% sucrose for 72 hours. The sucrose saturated brain tissue was flash frozen in-25 to −35° C. isopentane and stored at −20° C. or proceeded to sectioning.
Magnetic Resonance Imaging (MRI). MRI scanning was performed at 1.5 months and 4.5 months post-blast injury. Briefly, rats were placed under anesthesia with 4% isoflurane before placing it in the MRI scanner. Physiological monitoring was recorded every 10 min (with normal range 300-450 bpm) and rat body temperature was maintained while scanning under anesthesia. […] Labeling efficiency was calculated from a pCASL-encoded fast low-angle shot (FLASH) sequence (TR/TE=250/3.5 ms; in plane resolution 182×182 μm2; slice thickness 1.5 mm; flip angle 80° labeling time 200 ms; transit time 0 ms) image of the carotid artery just below the split and 5 mm above the labeling slice. […]

[8] = test system: freezing behavior after rmbTBI; assay: Contextual fear conditioning test, chronic delayed sildenafil study; type: in vivo, Sprague Dawley rats; conditions: 20 mg/kg daily; 5 months post-blast; day 1 acquisition, days 2-4 extinction
Description: Animal Procedure. […] MRI (magnetic resonance imaging) was performed at 1.5 and 4.5 months post-blast. Fear conditioning test was performed at 5 months post-blast. At the end of the experiment, rats were euthanized and the brain tissue was collected after transcardial perfusion with PBS (FIG. 24). One hemisphere of the brain was snap frozen with liquid nitrogen for brain capillary isolation while another hemisphere of the brain was fixed with 4% paraformaldehyde (PFA). After 48 hours of fixation, the brain tissue was placed into PBS containing 30% sucrose for 72 hours. The sucrose saturated brain tissue was flash frozen in-25 to −35° C. isopentane and stored at −20° C. or proceeded to sectioning. Fear Conditioning Test. Contextual Fear Conditioning paradigm was performed over 4 days. On the acquisition day, rats were placed in a foot shock chamber with a camera within a sound-attenuating chamber and were allowed to explore freely for 2 min. After 2 min, a total of 6 electric shocks (0.75 mA, 2 s duration) were delivered at intervals of 60 s through the testing chamber floor, with shock delivery controlled by Med associates Inc. VideoFreeze™ Video Fear Conditioning Software. […] Video footage was later scored for freezing behavior using Med associates Inc. VideoFreeze™ Video Fear Conditioning Software. […]

[9] = 5 mg/kg low dose daily to day seven
[10] = 20 mg/kg high dose daily to day seven

CCCc1nn(C)c2c(=O)[nH]c(-c3cc(S(=O)(=O)N4CCN(C)CC4)ccc3OCC)nc12 [sildenafil]
mitochondrial branching [1]: decreased
mitochondrial footprint/density [1]: increased
PGC-1α expression in cortex tissue [2, 9]: increased
PGC-1α expression in cortex tissue [2, 10]: increased
PGC-1α expression in hippocampal tissue ([2]; 20 mg/kg high dose daily to day seven, rmbTBI): significantly increased
GFAP expression in cortex tissue [3, 9]: increased
GFAP expression in cortex tissue [3, 10]: increased
TOM20 expression / capillary mitochondrial volume [4]: significantly increased; also recorded: increased volume
ZO-1 expression in cortical capillaries [5]: increased; also recorded: non-significantly increased
correlation between capillary mitochondrial content (OXPHOS) and tight junction integrity (ZO-1) [6]: significant positive correlation; also recorded: strengthens the correlation
regional cerebral blood flow (CBF) in cortex, hippocampus and amygdala [7]: No significant differences
freezing episodes (fear extinction) [8]: significant time-related decrease
